In ChEMBL document CHEMBL1201862, “PubChem BioAssay data set” (2004):
Blank lines part the entries; values can stand above or below the compound they belong to. Calls of active or inactive are those of the source.

Legend:
[1] = biological target: T1, Heat shock factor protein 1 (Mus musculus, UniProt P38532); experiment: enhancement of HSF1-driven luciferase signal – cell-based, NIH3T3, luminescence, dose retest, confirmation (AID 435004); assay type: functional;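 also: stress induced by proteasome inhibitor MG132 added 30 min after compound; luciferase reporter driven by HSF1 response element in NIH3T3 cells; actives raise luminescence as potentiators of the MG132 stress response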
T1 sequence (P38532 whole entry): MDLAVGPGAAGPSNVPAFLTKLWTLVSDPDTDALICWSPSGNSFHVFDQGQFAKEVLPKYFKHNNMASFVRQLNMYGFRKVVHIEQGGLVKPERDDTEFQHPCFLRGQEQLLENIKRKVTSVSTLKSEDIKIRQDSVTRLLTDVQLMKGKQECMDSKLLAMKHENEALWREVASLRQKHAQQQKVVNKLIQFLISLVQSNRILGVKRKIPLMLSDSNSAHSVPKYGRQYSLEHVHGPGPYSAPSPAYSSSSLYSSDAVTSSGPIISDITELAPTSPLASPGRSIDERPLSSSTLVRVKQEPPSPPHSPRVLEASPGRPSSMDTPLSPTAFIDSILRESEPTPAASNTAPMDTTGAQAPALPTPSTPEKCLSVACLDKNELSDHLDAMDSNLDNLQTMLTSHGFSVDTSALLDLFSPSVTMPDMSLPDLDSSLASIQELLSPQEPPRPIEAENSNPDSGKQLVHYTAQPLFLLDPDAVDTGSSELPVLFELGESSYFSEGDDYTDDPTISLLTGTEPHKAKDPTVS

Genome polyprotein = Genome polyprotein (dengue virus type 2, UniProt P29990); experiment: flavivirus cap methylation enzyme inhibition – biochemical, confirmation dose response, primary screen (AID 588689); assay type: functional
Chain of Genome polyprotein (P29990 2492-3391 limits assumed): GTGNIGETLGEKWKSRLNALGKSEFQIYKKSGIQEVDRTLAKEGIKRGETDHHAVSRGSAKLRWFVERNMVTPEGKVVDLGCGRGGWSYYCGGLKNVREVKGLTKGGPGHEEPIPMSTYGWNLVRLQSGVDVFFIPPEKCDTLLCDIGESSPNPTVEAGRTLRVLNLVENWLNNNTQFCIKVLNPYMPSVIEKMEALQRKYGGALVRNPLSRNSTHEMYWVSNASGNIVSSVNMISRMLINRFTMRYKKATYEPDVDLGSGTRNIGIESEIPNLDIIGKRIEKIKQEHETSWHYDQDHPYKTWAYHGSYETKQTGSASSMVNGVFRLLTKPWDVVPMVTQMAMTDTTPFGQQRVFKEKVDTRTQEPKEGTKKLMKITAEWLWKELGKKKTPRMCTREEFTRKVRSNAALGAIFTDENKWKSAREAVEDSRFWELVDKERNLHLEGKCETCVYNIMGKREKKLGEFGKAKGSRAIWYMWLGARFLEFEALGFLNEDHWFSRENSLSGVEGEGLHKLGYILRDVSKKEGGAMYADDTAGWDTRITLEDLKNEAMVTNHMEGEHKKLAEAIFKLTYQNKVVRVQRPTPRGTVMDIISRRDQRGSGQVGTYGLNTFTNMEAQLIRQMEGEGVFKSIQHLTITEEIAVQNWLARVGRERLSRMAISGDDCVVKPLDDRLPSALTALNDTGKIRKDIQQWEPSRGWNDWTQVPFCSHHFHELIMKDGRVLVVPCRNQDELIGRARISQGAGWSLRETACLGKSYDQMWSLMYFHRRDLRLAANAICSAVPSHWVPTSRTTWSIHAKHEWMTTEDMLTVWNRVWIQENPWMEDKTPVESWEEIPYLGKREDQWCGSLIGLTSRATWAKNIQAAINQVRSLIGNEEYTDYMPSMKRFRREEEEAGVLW

[2] = biological target: Histone-lysine N-methyltransferase NSD2 (Homo sapiens, UniProt O96028); assay type: biochemical
Chain of Histone-lysine N-methyltransferase NSD2 (O96028 whole entry): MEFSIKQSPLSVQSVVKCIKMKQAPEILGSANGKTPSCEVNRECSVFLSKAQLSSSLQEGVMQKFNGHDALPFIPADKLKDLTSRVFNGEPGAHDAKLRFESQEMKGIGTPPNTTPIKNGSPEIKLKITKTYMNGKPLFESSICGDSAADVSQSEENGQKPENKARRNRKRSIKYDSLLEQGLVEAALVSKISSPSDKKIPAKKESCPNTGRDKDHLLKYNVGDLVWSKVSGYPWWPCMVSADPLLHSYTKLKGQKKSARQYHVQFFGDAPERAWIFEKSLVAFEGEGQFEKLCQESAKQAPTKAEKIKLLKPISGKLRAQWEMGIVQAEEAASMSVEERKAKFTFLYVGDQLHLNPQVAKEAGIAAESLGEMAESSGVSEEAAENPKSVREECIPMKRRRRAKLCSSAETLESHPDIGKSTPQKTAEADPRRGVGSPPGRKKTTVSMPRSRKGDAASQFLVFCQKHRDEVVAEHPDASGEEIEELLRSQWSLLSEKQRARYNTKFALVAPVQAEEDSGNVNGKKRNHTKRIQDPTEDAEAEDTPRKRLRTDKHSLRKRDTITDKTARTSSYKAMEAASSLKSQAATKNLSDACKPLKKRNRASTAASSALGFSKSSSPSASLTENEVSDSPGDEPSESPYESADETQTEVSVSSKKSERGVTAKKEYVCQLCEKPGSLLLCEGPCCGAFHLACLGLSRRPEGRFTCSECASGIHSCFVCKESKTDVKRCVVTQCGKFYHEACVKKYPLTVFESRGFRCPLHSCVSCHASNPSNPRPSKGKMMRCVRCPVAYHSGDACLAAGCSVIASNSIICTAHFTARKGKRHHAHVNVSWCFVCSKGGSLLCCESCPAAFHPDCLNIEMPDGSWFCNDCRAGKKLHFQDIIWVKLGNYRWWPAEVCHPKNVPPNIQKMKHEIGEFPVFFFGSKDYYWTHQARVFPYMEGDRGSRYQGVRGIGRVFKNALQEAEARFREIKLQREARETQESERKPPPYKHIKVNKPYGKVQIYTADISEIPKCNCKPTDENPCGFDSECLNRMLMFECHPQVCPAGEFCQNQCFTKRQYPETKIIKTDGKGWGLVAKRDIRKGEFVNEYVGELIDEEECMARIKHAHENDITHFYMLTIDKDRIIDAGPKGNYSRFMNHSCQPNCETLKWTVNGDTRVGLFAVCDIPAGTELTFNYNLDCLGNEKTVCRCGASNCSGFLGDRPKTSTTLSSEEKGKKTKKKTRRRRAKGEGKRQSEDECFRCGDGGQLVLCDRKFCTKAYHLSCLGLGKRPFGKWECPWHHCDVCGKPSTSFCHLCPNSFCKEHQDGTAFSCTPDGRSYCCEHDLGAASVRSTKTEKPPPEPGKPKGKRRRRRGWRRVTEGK

[3] = A549 cell cytotoxicity, dose response, cytotoxicity control, plate reader, cherry-pick, antagonist series (AID 743412); assay type: functional, cell-based
[4] = toxicity toward HepG2 liver cells – cell-based, plate reader, cherry-pick, antagonist series, cytotoxicity control, dose response (AID 743416); assay type: functional
[5] = blockers of bursicon-stimulated LGR2 cAMP reporter – cell-based, HEK293, CRE-luciferase reporter, cherry pick, set 2, dose response (AID 743343); assay type: functional;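 also: transfected cells were stimulated with diluted bursicon conditioned medium after compound addition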
[6] = blockade of melanocortin 4 receptor signaling – cell-based, plate reader, cherry pick, counter-screen for LGR2 antagonist project, dose response (AID 743444); assay type: functional;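 also: transfected HEK 293 cells stimulated with alpha-MSH peptide; potency of inhibitors of the alpha-MSH evoked signal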
[7] = viability loss in HEK293 cells – cell-based, plate reader, cherry-picked samples, cytotoxicity control, dose response (AID 743446); assay type: functional
Kallikrein-7 = Kallikrein-7 (Homo sapiens, UniProt P49862); experiment: Fluorescence Intensity-based biochemical primary high throughput dose response assay to identify activators of kallikrein-7 (K7) zymogen.
Chain of Kallikrein-7 (P49862 whole entry): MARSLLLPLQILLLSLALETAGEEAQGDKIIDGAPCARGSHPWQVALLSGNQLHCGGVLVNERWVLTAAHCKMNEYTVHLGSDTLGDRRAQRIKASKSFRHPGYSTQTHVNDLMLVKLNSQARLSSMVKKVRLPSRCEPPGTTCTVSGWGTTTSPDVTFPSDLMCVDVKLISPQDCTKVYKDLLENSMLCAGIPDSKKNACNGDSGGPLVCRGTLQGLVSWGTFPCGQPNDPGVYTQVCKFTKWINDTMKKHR

Paired box protein Pax-8 = Paired box protein Pax-8 (Homo sapiens, UniProt Q06710); experiment: PAX8 transcriptional activity inhibition in RMG-I – RMG-I cells, luciferase, cherry-pick, dose response (AID 687027); assay type: functional, cell-based;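 also: luciferase reporter driven by Pax8 target thyroperoxidase promoter measured by SteadyGlo luminescence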
Chain of Paired box protein Pax-8 (Q06710 whole entry): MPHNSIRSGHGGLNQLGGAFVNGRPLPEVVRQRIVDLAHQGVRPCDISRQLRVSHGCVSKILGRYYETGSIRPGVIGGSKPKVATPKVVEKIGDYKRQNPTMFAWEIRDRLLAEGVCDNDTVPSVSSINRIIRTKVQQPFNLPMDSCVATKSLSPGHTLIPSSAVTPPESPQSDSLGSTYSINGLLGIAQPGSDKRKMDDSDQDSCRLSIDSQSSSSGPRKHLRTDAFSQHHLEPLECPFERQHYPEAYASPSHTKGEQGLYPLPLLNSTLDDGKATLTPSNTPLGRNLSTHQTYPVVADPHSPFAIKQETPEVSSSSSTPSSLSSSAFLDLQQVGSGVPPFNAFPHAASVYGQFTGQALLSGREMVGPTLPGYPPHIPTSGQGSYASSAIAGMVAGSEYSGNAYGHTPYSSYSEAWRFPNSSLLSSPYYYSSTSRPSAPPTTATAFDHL

[8] = OVCAR-3 cell viability loss – plate reader, dry powder samples, PAX8 inhibitor project, dose response (AID 743044); assay type: functional, cell-based
[9] = general cell-killing toxicity readout – plate reader, dry powder samples, cytotoxicity control for PAX8 inhibitor project, dose response (AID 743021); assay type: functional, cell-based
[10] = OVCAR8 cell viability loss – plate reader, dry powder samples, PAX8 project, dose response (AID 743197); assay type: functional, cell-based; settings: OVCAR-8
[11] = biological target: Endoplasmic reticulum aminopeptidase 1 (Homo sapiens, UniProt Q9NZ08); experiment: inhibition of human ERAP1 enzyme activity – biochemical, cherry-pick, set 2, plate reader, dose response (AID 743314)
Chain of Endoplasmic reticulum aminopeptidase 1 (Q9NZ08 whole entry): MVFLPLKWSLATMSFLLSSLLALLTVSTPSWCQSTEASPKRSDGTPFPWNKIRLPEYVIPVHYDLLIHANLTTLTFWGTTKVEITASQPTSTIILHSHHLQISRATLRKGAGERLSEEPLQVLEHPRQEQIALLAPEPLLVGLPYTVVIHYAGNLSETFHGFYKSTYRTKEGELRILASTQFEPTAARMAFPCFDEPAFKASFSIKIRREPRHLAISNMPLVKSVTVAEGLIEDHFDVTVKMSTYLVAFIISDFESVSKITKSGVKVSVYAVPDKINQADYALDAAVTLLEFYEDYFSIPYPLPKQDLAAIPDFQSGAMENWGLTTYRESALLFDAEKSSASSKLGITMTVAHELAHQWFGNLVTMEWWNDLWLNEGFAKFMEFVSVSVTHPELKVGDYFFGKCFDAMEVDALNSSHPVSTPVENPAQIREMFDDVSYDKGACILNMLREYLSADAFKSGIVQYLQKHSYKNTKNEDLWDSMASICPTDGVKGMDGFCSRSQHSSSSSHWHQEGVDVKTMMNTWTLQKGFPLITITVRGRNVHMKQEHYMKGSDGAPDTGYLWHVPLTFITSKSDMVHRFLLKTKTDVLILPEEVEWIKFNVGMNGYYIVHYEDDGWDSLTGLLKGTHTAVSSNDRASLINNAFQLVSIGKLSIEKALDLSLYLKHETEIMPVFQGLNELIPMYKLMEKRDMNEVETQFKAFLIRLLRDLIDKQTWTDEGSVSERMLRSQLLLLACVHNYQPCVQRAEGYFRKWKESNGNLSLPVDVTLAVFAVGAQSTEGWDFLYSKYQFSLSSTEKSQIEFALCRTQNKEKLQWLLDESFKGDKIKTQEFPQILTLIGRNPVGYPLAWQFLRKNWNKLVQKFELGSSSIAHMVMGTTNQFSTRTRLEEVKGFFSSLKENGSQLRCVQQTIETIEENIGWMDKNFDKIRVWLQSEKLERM

[12] = growth inhibition of yeast DHODH-expressing 3D7 parasites – SYBR Green, dry powder samples, dose response (AID 1159570); assay type: functional, cell-based;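 also: parasite growth measured after 72 hours of compound exposure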
[13] = toxicity to human HepG2 hepatoma cells – cell-based, plate reader, dry powder samples, cytotoxicity control, dose response (AID 1159569); assay type: functional;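 also: inhibitor potency with signal falling toward the positive control level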
[14] = P. falciparum Dd2 growth inhibitors, dose response, SYBR Green, cherry-picked samples (AID 1159567); assay type: functional, cell-based
[15] = Dd2 malaria parasite growth inhibition potency – SYBR Green, dry powder samples, dose response (AID 1159566); assay type: functional, cell-based;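 also: potency for growth inhibition with lower SYBR green DNA signal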
[16] = growth inhibition of PfATP4-mutant resistant parasites – NITD609-resistant line, SYBR Green, dry powder, dose response (AID 1159571); assay type: functional, cell-based;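 also: parasites synchronized at ring stage by sorbitol before testing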
[17] = rise of 2N DNA cells, HeLa – IC50, dose response (AID 1117349); assay type: functional, cell-based
[18] = rise of 4N DNA cells, HeLa – IC50, dose response (AID 1117351); assay type: functional, cell-based
[19] = CellTiter-Glo luminescence survival assay, SW480 colon tumor line, concentration-response curve, half-maximal inhibitory concentration (AID 1117338); assay type: functional
[20] = RKO cell viability reduction, dose response, CellTiter-Glo luminescence (AID 1117322); assay type: functional
[21] = cytotoxicity toward HCT116 cells – cell-based, CellTiter-Glo luminescence, IC50, dose response (AID 1117332); assay type: functional; settings: HCT-116
[22] = SNU-C1 cell viability reduction, dose response, CellTiter-Glo luminescence (AID 1117323); assay type: functional, cell-based
[23] = cytotoxicity toward Colo320 cells – cell-based, CellTiter-Glo luminescence, IC50, dose response (AID 1117334); assay type: functional; settings: COLO 320
[24] = cytotoxicity toward HT-29 cells – cell-based, CellTiter-Glo luminescence, IC50, dose response (AID 1117330); assay type: functional
[25] = Reduced DLD-1 viability, concentration-response, CellTiter-Glo luminescence (AID 1117352); assay type: functional
[26] = IC50 of insulin release inhibition, rat insulinoma INS-1E line, 5 mM glucose, cell-based (AID 1117331); assay type: functional

Structure (SMILES): O=C(O)CN1C(=O)/C(=C\c2cc(Br)ccc2OCc2ccc(F)cc2)SC1=S
- EC50 [1]: > 260 µM (inactive)
- IC50 (Genome polyprotein): 31.4 µM (active)
- AC50 [2]: 18.5 µM (active)

Structure (SMILES): COc1cc(OC)nc(Nc2nc(C(N)Cc3ccc(C(F)(F)F)cc3)cs2)n1 (stereo not given)
- AC50 [3]: 7.58 µM (active)
- AC50 [4]: 7.18 µM (active)
- AC50 [5]: 18.9 µM (active)
- AC50 [6]: 24.8 µM (active)
- AC50 [7]: 15.7 µM (active)

- EC50 (Kallikrein-7): > 69.5 µM (inactive)
Structure (SMILES): Cc1cccc(/C=N/c2ccccc2C(N)=O)c1

Structure (SMILES): CN(C)CC(=O)N1CCCCN2[C@H](CO)[C@H](c3ccc(/C=C/c4ccccc4)cc3)[C@H]2C1
- AC50 (Paired box protein Pax-8): 9.31 µM (active)
- AC50 [8]: 47.6 µM (active)
- AC50 [9]: 42.9 µM (active)
- AC50 [10]: 69.1 µM (active)

- AC50 [11]: 4.85 µM (active)
Structure (SMILES): COCC(=O)N1[C@@H]2c3ccc(/C=C/c4ccccc4)c(=O)n3C[C@H]1[C@H](CO)[C@H]2C(=O)N1CCOCC1

- AC50 [11]: 6.38 µM (active)
Structure (SMILES): C/C(=N\NC(=O)CC#N)c1cc2ccc(O)cc2oc1=O

Structure (SMILES): C[C@H]1CN([C@@H](C)CO)C(=O)c2c(c3ccccc3n2C)-c2ccccc2CO[C@H]1CN(C)C(=O)Nc1cccc(Cl)c1Cl
- AC50 [12]: 1.77 µM (active)
- AC50 [13]: 18.7 µM (active)
- AC50 [14]: 3.09 µM (active)
- AC50 [15]: 0.785 µM (active)
- AC50 [16]: 0.897 µM (active)

Structure (SMILES): O=S(=O)(c1ccc(F)cc1)N1CCCCN2[C@@H](CO)[C@@H](c3ccc(C4=CCCCC4)cc3)[C@@H]2C1
- AC50 [12]: 1.15 µM (active)
- AC50 [13]: 12.8 µM (active)
- AC50 [14]: 1.69 µM (active)
- AC50 [15]: 1.07 µM (active)
- AC50 [16]: 0.915 µM (active)

Structure (SMILES): C1CN(P2(N3CC3)=NP(N3CC3)(N3CC3)=NP(N3CC3)(N3CC3)=N2)CCO1 (stereo not given) [FOTRETAMINE]
- IC50 [17]: > 10 µM (inactive)
- IC50 [18]: > 10 µM (inactive)

Structure (SMILES): Cc1onc(-c2ccccc2)c1-c1ccc(S(N)(=O)=O)cc1 [VALDECOXIB]
- IC50 [19]: > 20 µM (inactive)
- IC50 [20]: > 20 µM (inactive)
- IC50 [21]: > 20 µM (inactive)
- IC50 [22]: > 20 µM (inactive)
- IC50 [23]: > 20 µM (inactive)
- IC50 [24]: > 20 µM (inactive)
- IC50 [25]: > 20 µM (inactive)

Structure (SMILES): CCCC(CCC)C(=O)O [VALPROIC ACID]
- IC50 [26]: > 33.3 µM (inactive)
